Assay: Stability of pyridoxamine in peritoneal dialysis fluid (HPLC)
Type: physicochemical
Settings: for peak height of pyridoxamine measured by HPLC / rate of peak height of pyridoxamine to first measurement day: 5 μg/ml
Source text: • Peritoneal dialysis fluid: Dianeal (registered trademark)-N PD-4-1.5 (Baxter Limited) • Pyridoxamine dihydrochloride (Wako Pure Chemical Industries, Ltd.)
The above peritoneal dialysis fluid is composed of an acid solution containing glucose (pH 3.5 to 4.5) and an alkaline solution containing an electrolyte, such as sodium lactate (pH 7.0 to 7.7), which are respectively placed in upper and lower compartments of a two-compartment container divided by an openable partition. When peritoneal dialysis treatment is performed on a chronic renal failure patient, the partition is opened between the upper and lower compartments so that both solutions are mixed, and the mixture is used after its pH is adjusted to a neutral range (pH 6.5 to 7.5).
The glucose-containing solution (pH 4.15) in the upper compartment of the peritoneal dialysis fluid bag, the electrolyte solution (pH 7.02) in the lower compartment, and the mixture of the upper and lower compartment solutions (pH 6.76) were used as solvents, and 5 μg/ml of pyridoxamine dihydrochloride was dissolved in each solvent to obtain test samples. The test samples were left for three weeks at room temperature (25±5° C.), which was almost the same condition that renal failure patients generally store. During that period, sampling was conducted with time, and the amount of pyridoxamine contained in each test sample was measured.
The amount of pyridoxamine contained in the test samples was measured by high-performance liquid chromatography (HPLC) under the following conditions.
High-performance liquid chromatography: Shimadzu Corporation
Mobile phase: 0.1% trifluoroacetic acid-containing aqueous solution
Stationary phase: C18 column (Develosil), 4.6×150 mm, 5 μm; Nomura Chemical Co., Ltd.)
Detection: UV detection of absorbance at a wavelength of 294 nm (UV detector: Shimadzu Corporation)

[1] = lower-compartment solution (pH 7.02), room temperature, 1st day, time 0
[2] = lower-compartment solution (pH 7.02), room temperature, 2nd day, time 24
[3] = lower-compartment solution (pH 7.02), room temperature, 6th day, time 120
[4] = lower-compartment solution (pH 7.02), room temperature, 7th day, time 144
[5] = lower-compartment solution (pH 7.02), room temperature, 8th day, time 168
[6] = lower-compartment solution (pH 7.02), room temperature, 10th day, time 216
[7] = lower-compartment solution (pH 7.02), room temperature, 15th day, time 336
[8] = lower-compartment solution (pH 7.02), room temperature, 21st day, time 480
[9] = peritoneal dialysis fluid mixture (pH 6.76), room temperature, 1st day, time 0
[10] = peritoneal dialysis fluid mixture (pH 6.76), room temperature, 2nd day, time 24
[11] = peritoneal dialysis fluid mixture (pH 6.76), room temperature, 6th day, time 120
[12] = peritoneal dialysis fluid mixture (pH 6.76), room temperature, 7th day, time 144
[13] = peritoneal dialysis fluid mixture (pH 6.76), room temperature, 8th day, time 168
[14] = peritoneal dialysis fluid mixture (pH 6.76), room temperature, 10th day, time 216
[15] = peritoneal dialysis fluid mixture (pH 6.76), room temperature, 15th day, time 336
[16] = peritoneal dialysis fluid mixture (pH 6.76), room temperature, 21st day, time 480
[17] = upper-compartment solution (pH 4.15), room temperature, 1st day, time 0
[18] = upper-compartment solution (pH 4.15), room temperature, 2nd day, time 24
[19] = upper-compartment solution (pH 4.15), room temperature, 6th day, time 120
[20] = upper-compartment solution (pH 4.15), room temperature, 7th day, time 144
[21] = upper-compartment solution (pH 4.15), room temperature, 8th day, time 168
[22] = upper-compartment solution (pH 4.15), room temperature, 10th day, time 216
[23] = upper-compartment solution (pH 4.15), room temperature, 15th day, time 336
[24] = upper-compartment solution (pH 4.15), room temperature, 21st day, time 480

## Cc1ncc(CO)c(CN)c1O.Cl.Cl [pyridoxamine dihydrochloride, Pyridoxamine dihydrochloride]
[1]
  peak height of pyridoxamine measured by HPLC: 13265
  rate of peak height of pyridoxamine to first measurement day: 100%
[2]
  peak height of pyridoxamine measured by HPLC: 12959
  rate of peak height of pyridoxamine to first measurement day: 98%
[3]
  peak height of pyridoxamine measured by HPLC: 13029
  rate of peak height of pyridoxamine to first measurement day: 98%
[4]
  peak height of pyridoxamine measured by HPLC: 12800
  rate of peak height of pyridoxamine to first measurement day: 96%
[5]
  peak height of pyridoxamine measured by HPLC: 12206
  rate of peak height of pyridoxamine to first measurement day: 92%
[6]
  peak height of pyridoxamine measured by HPLC: 11887
  rate of peak height of pyridoxamine to first measurement day: 90%
[7]
  peak height of pyridoxamine measured by HPLC: 11342
  rate of peak height of pyridoxamine to first measurement day: 86%
[8]
  peak height of pyridoxamine measured by HPLC: 10505
  rate of peak height of pyridoxamine to first measurement day: 79%
[9]
  peak height of pyridoxamine measured by HPLC: 11061
  rate of peak height of pyridoxamine to first measurement day: 100%
[10]
  peak height of pyridoxamine measured by HPLC: 9991
  rate of peak height of pyridoxamine to first measurement day: 90%
[11]
  peak height of pyridoxamine measured by HPLC: 10323
  rate of peak height of pyridoxamine to first measurement day: 93%
[12]
  peak height of pyridoxamine measured by HPLC: 9821
  rate of peak height of pyridoxamine to first measurement day: 89%
[13]
  peak height of pyridoxamine measured by HPLC: 9924
  rate of peak height of pyridoxamine to first measurement day: 90%
[14]
  peak height of pyridoxamine measured by HPLC: 9612
  rate of peak height of pyridoxamine to first measurement day: 87%
[15]
  peak height of pyridoxamine measured by HPLC: 9429
  rate of peak height of pyridoxamine to first measurement day: 85%
[16]
  peak height of pyridoxamine measured by HPLC: 6322
  rate of peak height of pyridoxamine to first measurement day: 57%
upper-compartment and lower-compartment solutions before mixing, room temperature, within three weeks
  pyridoxamine content relative to original content: 70%
[17]
  peak height of pyridoxamine measured by HPLC: 14051
  rate of peak height of pyridoxamine to first measurement day: 100%
[18]
  peak height of pyridoxamine measured by HPLC: 13271
  rate of peak height of pyridoxamine to first measurement day: 94%
[19]
  peak height of pyridoxamine measured by HPLC: 13084
  rate of peak height of pyridoxamine to first measurement day: 93%
[20]
  peak height of pyridoxamine measured by HPLC: 13316
  rate of peak height of pyridoxamine to first measurement day: 95%
[21]
  peak height of pyridoxamine measured by HPLC: 11561
  rate of peak height of pyridoxamine to first measurement day: 82%
[22]
  peak height of pyridoxamine measured by HPLC: 12139
  rate of peak height of pyridoxamine to first measurement day: 86%
[23]
  peak height of pyridoxamine measured by HPLC: 11518
  rate of peak height of pyridoxamine to first measurement day: 82%
[24]
  peak height of pyridoxamine measured by HPLC: 10605
  rate of peak height of pyridoxamine to first measurement day: 75%
upper-compartment solution, lower-compartment solution and mixture, left for three weeks
  stability of pyridoxamine in the peritoneal dialysis fluid: unstable
